Consider three compounds from publication PMC11284788, “NN1213 – A Potent, Long-Acting, and Selective Analog of Human Amylin” (Journal of Medicinal Chemistry, 2024).

The pIC50 is −log10 of the IC50, conventionally taken in molar units.

pIC50: −log10 of the molar value. Where two headings read alike, the source gives them in different places. Numbered stars: 1 amine (or outer) side, 2 acyl side, 3 side chain; on linkers, the order of the positions; unused ones are H or OH. Bridge positions count the residues as written; N and C are the ends. Side chains are listed from the residue outwards. Peptide text beside a SMILES is read from it. * marks the point of attachment. C20 diacid = O=C(O)CCCCCCCCCCCCCCCCCCC(=O)*; γGlu = O=C(O)[C@H](CCC(=O)[*:2])N[*:1]

In assay [1] the target is T1, rAMY3R (Rattus norvegicus, UniProt P32214+Q9JJ73).
T1 sequence (P32214 25-479 isoform P32214-2 limits assumed): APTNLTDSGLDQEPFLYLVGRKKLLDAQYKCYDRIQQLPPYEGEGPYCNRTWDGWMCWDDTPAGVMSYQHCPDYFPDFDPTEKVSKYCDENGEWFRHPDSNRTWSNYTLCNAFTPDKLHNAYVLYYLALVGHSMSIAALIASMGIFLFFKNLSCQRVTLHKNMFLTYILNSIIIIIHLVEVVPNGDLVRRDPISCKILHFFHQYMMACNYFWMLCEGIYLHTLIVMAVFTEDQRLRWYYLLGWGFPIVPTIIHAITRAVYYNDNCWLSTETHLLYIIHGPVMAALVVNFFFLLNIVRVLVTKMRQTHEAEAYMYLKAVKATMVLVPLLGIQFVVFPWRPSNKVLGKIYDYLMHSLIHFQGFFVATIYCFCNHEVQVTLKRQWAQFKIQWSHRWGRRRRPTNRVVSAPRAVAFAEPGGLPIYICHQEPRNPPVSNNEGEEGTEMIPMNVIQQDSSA
T1 sequence (Q9JJ73 23-147 partner): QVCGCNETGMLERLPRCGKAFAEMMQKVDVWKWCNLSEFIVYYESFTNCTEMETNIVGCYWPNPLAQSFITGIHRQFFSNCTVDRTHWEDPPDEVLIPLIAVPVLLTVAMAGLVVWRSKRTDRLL
Kind of assay: scintillation proximity binding assay, rAMY3R membranes. Details: expressed in transfected cells; host or cells: BHK tk-ts 13, transient co-transfection (FuGENE 6). The following applies: for ratio rCTR/rAMY3R: ratio of binding IC50 values. The method, then:
(§1) The apparent binding affinities were determined using a scintillation proximity assay with beads from PerkinElmer and cell membranes containing the AMY3R or CTRs. […] Membranes were harvested and membranes were prepared and kept at −80 °C until use. The assay was performed in a 384-well Optiplate (PerkinElmer). Membranes were mixed with scintillation proximity assay beads in a 1:1 ratio. […] Samples were analyzed on a TopCounter (Packard). The IC50 values were calculated using GraphPad Prism. See Supporting Information S7: SAR Screening Assay Methods (Binding Assays (Human and Rat)) for more information.
(§2) Binding Assays (Human and Rat). Brief descriptions of the methods used to determine binding affinities for SAR analysis are described below. Curves and IC50 values were plotted and calculated in GraphPad Prism using nonlinear regression (one site binding competition analysis), with pIC50 values […]
(§3) values were used to calculate the binding affinity ratios in order to express the selectivity of compounds for the AMY3R versus the CTR.
(§4) CTR Binding Assay. The binding assay was performed using scintillation proximity assay (SPA) beads (RPNQ0001) from PerkinElmer and cell membranes containing either the hCTR or rCTR. BHK […]
(§5) Membranes were prepared in the following way: the cells were rinsed with PBS and incubated with Versene for approximately 5 min before harvesting. The cells were flushed with PBS and the cell-suspension was centrifuged for 5 min at 1000 rpm. Cells were homogenized (Ultra Turrax) in a buffer […]
(§6) containing 20 mM Na-HEPES and 0.1 mM EDTA (pH 7.4, buffer 2). The resulting pellet was re-suspended in buffer 2 and protein concentration was measured (BCA protein assay, Pierce). The homogenate was kept cold during the whole procedure. The membranes were stored at –80 °C until […]
(§7) The binding assay was performed in a 384-well Optiplate (PerkinElmer) in a total volume of 40 μL.
(§8) Membranes were mixed with SPA beads in a 1:1 ratio. […]
(§9) mg/well. Test compounds were dissolved in DMSO and further diluted in assay buffer (50 mM HEPES, pH 7.4, 1 mM CaCl2, 5 mM MgCl2, 0.1% ovalbumin, and 0.02% Tween-20).
(§10) Calcitonin (NEX422 PerkinElmer) was dissolved in assay buffer and added to the Optiplate at a final […]
(§11) prior to centrifugation (1500 rpm, 10 min). Samples were analyzed on TopCounter (Packard).
(§12) AMY3R Binding Assay. The binding assay was performed using SPA beads (RPNQ0001) from PerkinElmer and cell membranes containing either the hAMY3R or rAMY3R. BHK tk-ts 13 cells were […]
(§13) and cultured as described above. Membranes were prepared in the following way: the cells were rinsed with PBS and incubated with Versene for approximately 5 min before harvesting. The cells were flushed with PBS and the cell-suspension was centrifuged for 5 min at 1000 rpm. Cells were homogenized (Ultra Turrax) in a buffer containing 20 mM Na-HEPES and 10 mM EDTA (pH 7.4), and […]
(§14) The resulting pellet was re-suspended, homogenized, and
(§15) 7.4, buffer 2). The resulting pellet was re-suspended in buffer 2 and protein concentration was measured (BCA protein assay, Pierce). The homogenate was kept cold during the whole procedure.
(§16) The membranes were stored at –80 °C until use.
(§17) Membranes were mixed with SPA beads in a 1:1 ratio. The final concentration of SPA beads was 0.05 mg/well. Test compounds were dissolved in DMSO and further diluted in assay buffer (50 mM […]
(§18) rAMY (NEX448 PerkinElmer) was dissolved in assay buffer and added to the Optiplate at a final
(In general: In a scintillation proximity assay essentially only radioactivity close to the scintillant gives light.)

Assay [2] has as its target T2, hAMY3R (Homo sapiens, UniProt O60896+P30988).
T2 sequence (P30988 25-474): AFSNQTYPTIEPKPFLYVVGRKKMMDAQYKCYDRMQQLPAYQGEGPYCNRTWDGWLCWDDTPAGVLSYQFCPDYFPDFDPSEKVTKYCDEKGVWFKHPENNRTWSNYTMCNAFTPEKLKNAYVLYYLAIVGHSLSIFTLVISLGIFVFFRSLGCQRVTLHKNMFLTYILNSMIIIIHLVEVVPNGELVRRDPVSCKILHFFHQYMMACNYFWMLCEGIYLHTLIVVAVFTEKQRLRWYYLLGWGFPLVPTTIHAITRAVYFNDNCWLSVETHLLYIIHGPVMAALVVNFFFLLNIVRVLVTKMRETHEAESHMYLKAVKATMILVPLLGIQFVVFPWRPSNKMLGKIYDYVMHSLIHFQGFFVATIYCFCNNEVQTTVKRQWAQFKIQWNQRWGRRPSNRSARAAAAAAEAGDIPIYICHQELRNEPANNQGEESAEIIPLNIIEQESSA
T2 sequence (O60896 24-148 partner): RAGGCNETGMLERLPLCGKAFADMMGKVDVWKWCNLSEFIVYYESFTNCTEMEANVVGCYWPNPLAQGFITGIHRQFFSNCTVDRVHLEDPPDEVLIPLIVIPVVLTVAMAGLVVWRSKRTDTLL
As to the kind of experiment: scintillation proximity binding assay, hAMY3R membranes. On the set-up: expressed in transfected cells; host or cells: BHK tk-ts 13, transient co-transfection; membranes for the SPA, whole cells for the species-specific assays. As to conditions: for ratio hCTR/hAMY3R: ratio of binding IC50 values; for IC50: SPA binding assay, Tables S13 and S15, read-out: hAMY3R pIC50 (converted); for pIC50: SPA, BHK cell membranes, 125I-rat amylin, 120 min 25 °C, read-out: hAMY3R IC50. The method, then:
as §1, §2, §3, §4, §5, §6, §7, §8, §9, §10, §11, §12, §13, §14, §15, §16, §17, §18

For `CC[C@H](C)[C@H](NC(=O)[C@H](C)NC(=O)CNC(=O)[C@H](Cc1ccccc1)NC(=O)[C@H](CC(N)=O)NC(=O)[C@@H]1CCCN1C(=O)[C@H](CO)NC(=O)[C@H](CO)NC(=O)[C@H](Cc1c[nH]cn1)NC(=O)[C@H](CCCNC(=N)N)NC(=O)[C@H](CC(C)C)NC(=O)[C@H](Cc1ccccc1)NC(=O)[C@H](CC(=O)O)NC(=O)[C@H](C)NC(=O)[C@H](CC(C)C)NC(=O)[C@H](CCCNC(=N)N)NC(=O)[C@H](CCC(N)=O)NC(=O)[C@@H](NC(=O)[C@H](C)NC(=O)[C@@H]1CSSC[C@H](NC(=O)[C@@H](N)CCCCNC(=O)CC[C@H](NC(=O)CC[C@H](NC(=O)CCCCCCCCCCCCCCCCCCC(=O)O)C(=O)O)C(=O)O)C(=O)N[C@@H](CC(N)=O)C(=O)N[C@@H]([C@@H](C)O)C(=O)N[C@@H](C)C(=O)N[C@@H]([C@@H](C)O)C(=O)N1)[C@@H](C)O)C(=O)N1CCC[C@H]1C(=O)N[C@@H](CO)C(=O)N[C@@H](CO)C(=O)N[C@H](C(=O)N[C@@H](CC(N)=O)C(=O)N[C@H](C(=O)NCC(=O)N[C@@H](CO)C(=O)N[C@@H](CC(=O)O)C(=O)N[C@H](C(=O)N[C@@H](Cc1ccc(O)cc1)C(N)=O)[C@@H](C)O)C(C)C)[C@@H](C)O` [Peptide 6] (H-K([γGlu-γGlu-C20 diacid])CNTATCATQRLADFLRHSSPNFGAIPSSTNVGSDTY-NH2; disulfide 2-7), the “ratio rCTR/rAMY3R” value in assay [1] was found to be 447. Further, in assay [2], the “ratio hCTR/hAMY3R” value stood at 55.

Consider `CC[C@H](C)[C@H](NC(=O)[C@H](C)NC(=O)CNC(=O)[C@H](Cc1ccccc1)NC(=O)[C@H](CC(N)=O)NC(=O)[C@@H]1CCCN1C(=O)[C@H](CO)NC(=O)[C@H](CO)NC(=O)[C@H](Cc1c[nH]cn1)NC(=O)[C@H](CCCNC(=N)N)NC(=O)[C@H](CC(C)C)NC(=O)[C@H](Cc1ccccc1)NC(=O)[C@H](CC(N)=O)NC(=O)[C@H](C)NC(=O)[C@H](CC(C)C)NC(=O)[C@H](CCCNC(=N)N)NC(=O)[C@H](CCC(N)=O)NC(=O)[C@@H](NC(=O)[C@H](C)NC(=O)[C@@H]1CSSC[C@H](NC(=O)[C@H](CCCCN)NC(=O)CC[C@H](NC(=O)CCCCCCCCCCCCCCCCCCC(=O)O)C(=O)O)C(=O)N[C@@H](CC(N)=O)C(=O)N[C@@H]([C@@H](C)O)C(=O)N[C@@H](C)C(=O)N[C@@H]([C@@H](C)O)C(=O)N1)[C@@H](C)O)C(=O)N1CCC[C@H]1C(=O)N[C@@H](CO)C(=O)N[C@@H](CO)C(=O)N[C@H](C(=O)N[C@@H](CC(N)=O)C(=O)N[C@H](C(=O)NCC(=O)N[C@@H](Cc1c[nH]cn1)C(=O)N[C@@H](CC(N)=O)C(=O)N[C@H](C(=O)N[C@@H](Cc1ccc(O)cc1)C(N)=O)[C@@H](C)O)C(C)C)[C@@H](C)O` [Peptide 17], for which the IC50 in assay [1] (SPA binding assay, Tables S13 and S15, read-out: rAMY3R pIC50 (converted)) was 1.29 nM. Also, the pIC50 in assay [1] (SPA, BHK cell membranes, 125I-rat amylin, 120 min 25 °C, read-out: rAMY3R IC50) was 8.89. Moreover, the “ratio rCTR/rAMY3R” value in assay [1] is recorded as 39. Besides, in assay [2], the IC50 was 0.479 nM, the negative logarithm of the IC50 (pIC50) was 9.32 and the “ratio hCTR/hAMY3R” value stood at 29.

In the case of `CC(C)C[C@H](NC(=O)[C@H](CCCNC(=N)N)NC(=O)[C@H](CCC(N)=O)NC(=O)[C@@H](NC(=O)[C@H](C)NC(=O)[C@@H]1CSSC[C@H](NC(=O)[C@@H](N)CCCCNC(=O)CC[C@H](NC(=O)CC[C@H](NC(=O)CCCCCCCCCCCCCCCCCCC(=O)O)C(=O)O)C(=O)O)C(=O)N[C@@H](CC(N)=O)C(=O)N[C@@H]([C@@H](C)O)C(=O)N[C@@H](C)C(=O)N[C@@H]([C@@H](C)O)C(=O)N1)[C@@H](C)O)C(=O)N[C@@H](C)C(=O)N[C@@H](CC(=O)O)C(=O)N[C@@H](Cc1ccccc1)C(=O)N[C@@H](CC(C)C)C(=O)N[C@@H](CCCNC(=N)N)C(=O)N[C@@H](Cc1c[nH]cn1)C(=O)N[C@@H](CO)C(=O)N[C@@H](CO)C(=O)N1CCC[C@H]1C(=O)N[C@@H](CC(N)=O)C(=O)N[C@@H](Cc1ccccc1)C(=O)NCC(=O)N[C@@H](C)C(=O)N1CCC[C@H]1C(=O)N[C@@H](CC(C)C)C(=O)N[C@@H](CO)C(=O)N[C@@H](CO)C(=O)N[C@H](C(=O)N[C@@H](CC(N)=O)C(=O)N[C@H](C(=O)NCC(=O)N[C@@H](CO)C(=O)N[C@@H](CC(=O)O)C(=O)N[C@H](C(=O)N[C@@H](Cc1ccc(O)cc1)C(N)=O)[C@@H](C)O)C(C)C)[C@@H](C)O` [Peptide 5] (H-K([γGlu-γGlu-C20 diacid])CNTATCATQRLADFLRHSSPNFGAPLSSTNVGSDTY-NH2; disulfide 2-7), the “rAMY3R pIC50” value in assay [1] (SPA binding assay, Tables S13 and S15) stood at 8.89. Further, in assay [1], the “ratio rCTR/rAMY3R” value is recorded as 81. In addition, in assay [2], the IC50 is 1.12 nM, the negative logarithm of the IC50 (pIC50) was 8.95 and the “ratio hCTR/hAMY3R” value was 27.
